Assay results from patent US12290513B2, “Therapeutic methods and compositions for treating movement disorders” (Vima Therapeutics, Inc., priority 2023, dated 2025).

Tests used:
[1] = Whole blood stability, dog
Experimental: Procedures for blood Stability. • A. 398 μL of blood from each species was added to an incubation plate, which was pre-warmed at 37C for 15 minutes. • B. After the pre-incubation, 2 μL of working solution (test compounds or control compounds) was spiked to 398 μL of blood to reach a final concentration of 1 μM for test compounds and 5 μM for control compounds. The final concentration of organic solvents is 0.5%. The assays were performed in duplicate. • C. The reaction samples were incubated at 37C. • D. Aliquots of 50 μL were taken from the reaction samples at 0, 15, 30, 60 and 120 minutes. The reaction was stopped by the addition of 50 μL ultrapure water and 400 μL cold acetonitrile. • E. All samples were vortexed for 10 minutes, followed by centrifugation at 3,220 g for 40 minutes to precipitate proteins. 100 μL of the supernatant was then transferred to a new plate. The supernatant was diluted with ultrapure water as needed for detection by LC-MS/MS. Sample Analysis
Samples were analyzed by LC-MS/MS to measure the concentration of the test compounds.
All calculations were carried out using Microsoft Excel and according to standard analysis methods that are known in the art.

[2] = tested on: PCP (antagonist radioligand); conditions: at the tested concentration; negative values set to zero
CYP2A6 = biological target: T1, CYP2A6 (Homo sapiens, UniProt P11509); experiment: Incubation with recombinant CYP2A6; conditions: for t1/2: unit not given
T1 sequence (P11509 1-494): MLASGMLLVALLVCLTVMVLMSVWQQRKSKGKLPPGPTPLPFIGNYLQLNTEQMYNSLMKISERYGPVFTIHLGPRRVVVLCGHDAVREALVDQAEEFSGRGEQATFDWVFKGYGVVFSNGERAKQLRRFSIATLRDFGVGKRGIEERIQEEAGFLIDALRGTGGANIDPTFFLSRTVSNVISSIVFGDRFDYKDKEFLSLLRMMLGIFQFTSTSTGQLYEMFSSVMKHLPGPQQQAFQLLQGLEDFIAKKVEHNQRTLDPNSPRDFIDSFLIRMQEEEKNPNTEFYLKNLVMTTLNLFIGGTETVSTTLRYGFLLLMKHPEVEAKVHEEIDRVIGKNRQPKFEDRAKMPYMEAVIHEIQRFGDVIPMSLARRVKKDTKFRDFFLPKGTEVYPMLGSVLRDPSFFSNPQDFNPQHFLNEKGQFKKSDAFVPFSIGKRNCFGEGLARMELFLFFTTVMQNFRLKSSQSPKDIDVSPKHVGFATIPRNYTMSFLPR

CYP2C8 = biological target: T2, CYP2C8 (Homo sapiens, UniProt P10632); experiment: Incubation with recombinant CYP2C8; conditions: for t1/2: unit not given
T2 sequence (P10632 1-490): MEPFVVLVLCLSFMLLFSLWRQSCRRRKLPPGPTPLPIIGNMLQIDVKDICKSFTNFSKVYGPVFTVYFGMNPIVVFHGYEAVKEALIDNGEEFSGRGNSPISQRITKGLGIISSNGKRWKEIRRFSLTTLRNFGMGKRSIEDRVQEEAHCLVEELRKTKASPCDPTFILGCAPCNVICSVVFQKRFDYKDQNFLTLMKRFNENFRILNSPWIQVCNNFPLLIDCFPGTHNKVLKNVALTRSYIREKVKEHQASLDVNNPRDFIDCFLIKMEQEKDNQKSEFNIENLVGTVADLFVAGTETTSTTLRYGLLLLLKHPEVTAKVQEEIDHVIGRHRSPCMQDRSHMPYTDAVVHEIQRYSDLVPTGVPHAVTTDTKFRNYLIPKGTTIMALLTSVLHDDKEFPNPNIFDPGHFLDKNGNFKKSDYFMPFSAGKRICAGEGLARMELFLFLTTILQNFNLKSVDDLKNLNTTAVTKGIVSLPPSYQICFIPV

CYP2C19 = CYP2C19 (Homo sapiens, UniProt P33261); experiment: Incubation with recombinant CYP2C19
[3] = biological target: human muscarinic receptor M1 (Homo sapiens, UniProt P11229); experiment: cell-based
Experimental: (§1) All cells used in the following experiments were clonal populations of Chinese Hamster Ovary (CHO) cells stably expressing the corresponding human muscarinic receptor, except for the M4 cell line, which was a population of CHO cells transiently transfected with the human M4 receptor. […] The procedure was as follows: • 1. Cells were thawed and cultured in cell culture medium (DMEM/F12 containing 10% FBS, 1× penicillin-streptomycin and 600 μg/ml hygromycin B) at 37° C. in 5% (v/v) CO2. • 2. One day before the assays, cells were detached using TrypLE™ and counted using a cell-counter. […] 12,000 cells/well were seeded in 30 μl/well culture medium in a 384-well cell plate and incubated overnight at 37C, 5% (v/v) CO2. • 4. On the assay day, 2× dye solution was prepared following the manual of the FLIPR® Calcium 6 Assay Kit: • i. The dye was diluted with assay buffer (20 mM HEPES in 1× HBSS, PH 7.4); • ii. Probenecid was added to a final concentration of 5 mM; • iii. […] were vortexed vigorously for 1-2 minutes. • 5. Medium was removed from the cell plate by flicking the cell plate on paper towels. • 6. 10 μl of assay buffer and 10 μl of 2× dye solution was added to each well of the cell plate. • 7. The cell plate was shaken on a plate shaker at 600 rpm for 2 minutes and incubated at 37° C. for 2 hours followed by an additional 15-minute incubation at 25° C. • 8. The test compounds were next prepared in assay buffer: • a. All compounds were diluted to the required concentration with DMSO and added to a 384-well compound plate; • b. All compounds were serially diluted; • 1. Starting with 10 mM concentration of each test compound, all samples were serially diluted in 3-fold dilutions. • 2. 90 nl/well of each compound was transferred from the source plate to a 384-well compound plate using an Echo liquid handler. • 3. 30 μl/well assay buffer was added to the compound plate; • c. The plates were mixed on a plate shaker for 2 mins; • 9. The cell plate, compound plate and pipette tips were placed in the FLIPR screening system and 10 μl of each compound was added to a well of the cell plate. • 10. Plates were read for 160 sec with 1 sec intervals to obtain the data in agonist mode, then kept at 25° C. in the dark for 30 min. • 11.

[4] = biological target: human muscarinic receptor M3 (Homo sapiens, UniProt P20309); experiment: cell-based
Experimental: as §1

M1 Muscarinic Receptor = M1 Muscarinic Receptor (Homo sapiens, UniProt P11229); experiment: (S)-BTC titration on M1 in the presence of fixed (R)-THP concentrations; type: cell-based; conditions: with increasing concentration of (R)-THP (58.5, 195, 585 nM)
Experimental: All cells used in the following experiments were clonal populations of Chinese Hamster Ovary (CHO) cells stably expressing the corresponding human muscarinic receptor, except for the M4 cell line, which was a population of CHO cells transiently transfected with the human M4 receptor. […] The procedure was as follows: • 1. Cells were thawed and cultured in cell culture medium (DMEM/F12 containing 10% FBS, 1× penicillin-streptomycin and 600 μg/ml hygromycin B) at 37° C. in 5% (v/v) CO2. • 2. One day before the assays, cells were detached using TrypLE™ and counted using a cell-counter. […] 12,000 cells/well were seeded in 30 μl/well culture medium in a 384-well cell plate and incubated overnight at 37C, 5% (v/v) CO2. • 4. On the assay day, 2× dye solution was prepared following the manual of the FLIPR® Calcium 6 Assay Kit: • i. The dye was diluted with assay buffer (20 mM HEPES in 1× HBSS, PH 7.4); • ii. Probenecid was added to a final concentration of 5 mM; • iii. Cells were vortexed vigorously for 1-2 minutes. • 5. Medium was removed from the cell plate by flicking the cell plate on paper towels. • 6. 10 μl of assay buffer and 10 μl of 2× dye solution was added to each well of the cell plate. • 7. […] Plates were read for 160 sec with 1 sec intervals to obtain the data in agonist mode, then kept at 25° C. in the dark for 30 min. • 11.

| Remaining Percentages (%) 0 min ([1]; dog whole blood, 37C) | t1/2 ([1]; dog whole blood, 37C) | CLint (CYP2A6) | t1/2 (CYP2A6) | CLint (CYP2C8) | t1/2 (CYP2C8) | Substrates of CYP2C19 (CYP2C19) | EC50 [3] | EC50 [4] | agonist effect of (S)-BTC toward the M1 muscarinic receptor (M1 Muscarinic Receptor) | t1/2 ([1]; dog, blood) | SMILES | signal, PCP (antagonist radioligand) [2] |
| --- | --- | --- | --- | --- | --- | --- | --- | --- | --- | --- | --- | --- |
| 100.00% | ∞ | 0.00 µL/min/pmol | ∞ | 0.00 µL/min/pmol | ∞ | Rac, R and S |  |  |  |  | O[C@@](CCN1CCCCC1)(c1ccccc1)C1CCCCC1 [(R)-THP, (R)-trihexyphenidyl] | 0.00% |
| 100.00% |  |  |  |  |  |  | 195 nM | 20.8 nM | decreases substantially | ∞ | C[C@@H](C[N+](C)(C)C)OC(N)=O.[Cl-] [(S)-BTC, (S)-bethanechol] |  |
|  |  | 0.00 µL/min/pmol | ∞ | 0.00 µL/min/pmol | ∞ | Rac, R and S |  |  |  |  | O[C@](CCN1CCCCC1)(c1ccccc1)C1CCCCC1 [(S)-THP, (S)-trihexyphenidyl] |  |
